# Assay results from US10807988B2, “3-((hetero-)aryl)-8-amino-2-oxo-1,3-diaza-spiro-[4.5]-decane derivatives” (Grünenthal GmbH, priority 2016, dated 2020).
# Target: human mu-opioid peptide (hMOP) receptor (Homo sapiens (Human), UniProt P35372)
# Test: Human mu-opioid peptide (hMOP) receptor binding assay (SPA, [3H]naloxone displacement)
# human mu-opioid peptide (hMOP) receptor, sequence (P35372 whole entry): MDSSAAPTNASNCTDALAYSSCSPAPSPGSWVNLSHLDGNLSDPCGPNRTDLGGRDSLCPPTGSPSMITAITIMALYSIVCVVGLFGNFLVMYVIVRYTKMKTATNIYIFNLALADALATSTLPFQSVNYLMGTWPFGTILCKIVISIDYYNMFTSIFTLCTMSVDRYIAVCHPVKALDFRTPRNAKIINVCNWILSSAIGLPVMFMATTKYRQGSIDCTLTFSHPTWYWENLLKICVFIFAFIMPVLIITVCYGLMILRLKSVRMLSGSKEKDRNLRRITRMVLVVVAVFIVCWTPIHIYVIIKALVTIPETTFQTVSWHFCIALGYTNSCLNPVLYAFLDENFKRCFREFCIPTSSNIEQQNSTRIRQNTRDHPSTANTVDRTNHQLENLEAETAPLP
SMILES,Ki [nM],hMOP % inhibition at 1 μM [%]
"CN(C)[C@]1(c2ccccc2)CC[C@]2(CC1)CN(c1cnc(C#N)nc1)C(=O)N2CCO [SC_3025, cis-5-[8-Dimethylamino-1-(2-hydroxy-ethyl)-2-oxo-8-phenyl-1,3-diazaspiro[4.5]decan-3-yl]-pyrimidine-2-carbonitrile]",1530,–
"CNC1(c2ccccc2)CCC2(CC1)CN(c1ccccc1C(N)=O)C(=O)N2 (stereo not drawn) [SC_3119, cis-2-(8-Methylamino-2-oxo-8-phenyl-1,3-diazaspiro[4.5]decan-3-yl)-benzamide]",–,10
"CN(C)C1(c2nc3ccccc3n2C)CCC2(CC1)CN(c1cnc(C(F)(F)F)nc1)C(=O)N2 (stereo not drawn) [SC_3219, cis-8-Dimethylamino-8-(1-methyl-1H-benzoimidazol-2-yl)-3-[2-(trifluoromethyl)-pyrimidin-5-yl]-1,3-diazaspiro[4.5]decan-2-one]",–,1
"CN(CC1CCOC1)[C@]1(c2ccccc2)CC[C@]2(CC1)CN(c1cnc(N3CCOCC3)nc1)C(=O)N2 (stereo partly drawn) [SC_3304, cis-8-[Methyl-(tetrahydro-furan-3-yl-methyl)-amino]-3-(2-morpholin-4-yl-pyrimidin-5-yl)-8-phenyl-1,3-diazaspiro[4.5]decan-2-one]",–,4
"CN(CC1CCOC1)[C@]1(c2ccccc2)CC[C@]2(CC1)CN(c1cnc(N3CCOCC3)nc1)C(=O)N2 (stereo partly drawn) [SC_3305, cis-8-[Methyl-(tetrahydro-furan-3-yl-methyl)-amino]-3-(2-morpholin-4-yl-pyrimidin-5-yl)-8-phenyl-1,3-diazaspiro[4.5]decan-2-one]",–,0

# Target: human nociceptin/orphanin FQ peptide (hNOP) receptor (Homo sapiens (Human), UniProt P41146)
# Test: not given
# Format: binding
SMILES,hNOP % inhibition at 1 μM [%],hNOP % inhibition at 10 μM [%@10 μM]
"CN1CCN(c2ncc(N3CC4(CCC(c5ccccc5)(N(C)CC5CCOC5)CC4)NC3=O)cn2)CC1 (single isomer, unassigned; enantiomer 1) [SC_3324, cis-3-[2-(4-Methyl-piperazin-1-yl)-pyrimidin-5-yl]-8-[methyl-(tetrahydro-furan-3-yl-methyl)-amino]-8-phenyl-1,3-diazaspiro[4.5]decan-2-one (enantiomer 1)]",12,–
"CN1CCN(c2ncc(N3CC4(CCC(c5ccccc5)(N(C)CC5CCOC5)CC4)NC3=O)cn2)CC1 (single isomer, unassigned; enantiomer 2) [SC_3325, cis-3-[2-(4-Methyl-piperazin-1-yl)-pyrimidin-5-yl]-8-[methyl-(tetrahydro-furan-3-yl-methyl)-amino]-8-phenyl-1,3-diazaspiro[4.5]decan-2-one (enantiomer 2)]",–,53
"CNC1(c2ccccc2)CCC2(CC1)CN(c1ccccc1C(N)=O)C(=O)N2 (stereo not drawn) [SC_3119, cis-2-(8-Methylamino-2-oxo-8-phenyl-1,3-diazaspiro[4.5]decan-3-yl)-benzamide]",22,–
"CCNC1(c2ccccc2)CCC2(CC1)CN(c1ccccc1C(N)=O)C(=O)N2 (stereo not drawn) [SC_3125, trans-2-(8-Ethylamino-2-oxo-8-phenyl-1,3-diazaspiro[4.5]decan-3-yl)-benzamide]",–,3
"CCNC1(c2ccccc2)CCC2(CC1)CN(c1ccccc1C(N)=O)C(=O)N2 (stereo not drawn) [SC_3126, cis--2-(8-Ethylamino-2-oxo-8-phenyl-1,3-diazaspiro[4.5]decan-3-yl)-benzamide]",0,–
"CCN[C@]1(c2ccccc2)CC[C@@]2(CC1)CN(c1ccccc1C#N)C(=O)N2 [SC_3127, cis-2-(8-Ethylamino-2-oxo-8-phenyl-1,3-diazaspiro[4.5]decan-3-yl)-benzonitrile]",0,–
"CCN[C@]1(c2ccccc2)CC[C@]2(CC1)CN(c1ccccc1C#N)C(=O)N2 [SC_3128, cis-2-(8-Ethylamino-2-oxo-8-phenyl-1,3-diazaspiro[4.5]decan-3-yl)-benzonitrile]",0,–
"CCNC1(c2ccccc2)CCC2(CC1)CN(c1ccc(C#N)cc1OC)C(=O)N2 (stereo not drawn) [SC_3134, trans-4-(8-Ethylamino-2-oxo-8-phenyl-1,3-diazaspiro[4.5]decan-3-yl)-3-methoxy-benzonitrile]",–,3
"CCNC1(c2ccccc2)CCC2(CC1)CN(c1ccc(C#N)cc1OC)C(=O)N2 (stereo not drawn) [SC_3135, cis-4-(8-Ethylamino-2-oxo-8-phenyl-1,3-diazaspiro[4.5]decan-3-yl)-3-methoxy-benzonitrile]",1,–
"CCN[C@]1(c2ccccc2)CC[C@]2(CC1)CN(c1cnc(C#N)nc1OC)C(=O)N2 [SC_3143, cis-5-(8-Ethylamino-2-oxo-8-phenyl-1,3-diazaspiro[4.5]decan-3-yl)-4-methoxy-pyrimidine-2-carbonitrile]",0,–
"CCN[C@]1(c2ccccc2)CC[C@@]2(CC1)CN(c1cnc(C#N)nc1OC)C(=O)N2 [SC_3144, trans-5-(8-Ethylamino-2-oxo-8-phenyl-1,3-diazaspiro[4.5]decan-3-yl)-4-methoxy-pyrimidine-2-carbonitrile]",0,–
"CN(C)[C@]1(Cc2ccccc2)CC[C@@]2(CC1)CN(c1cnc(N3CCOCC3)nc1)C(=O)N2 [SC_3160, trans-8-Benzyl-8-dimethylamino-3-(2-morpholin-4-yl-pyrimidin-5-yl)-1,3-diazaspiro[4.5]decan-2-one]",4,–
"CN(C)C1(Cc2ccccc2)CCC2(CC1)CN(c1cnc(N3CCOCC3)nc1)C(=O)N2 (stereo not drawn) [SC_3161, cis-8-Benzyl-8-dimethylamino-3-(2-morpholin-4-yl-pyrimidin-5-yl)-1,3-diazaspiro[4.5]decan-2-one]",2,–
"CN(C)C1(Cc2ccccc2)CCC2(CC1)CN(c1cnc(C(F)(F)F)nc1)C(=O)N2 (stereo not drawn) [SC_3165, cis-8-Benzyl-8-dimethylamino-3-[2-(trifluoromethyl)-pyrimidin-5-yl]-1,3-diazaspiro[4.5]decan-2-one]",4,–
"CN(C)[C@]1(Cc2ccccc2)CC[C@@]2(CC1)CN(c1cnc(C(F)(F)F)nc1)C(=O)N2 [SC_3166, trans-8-Benzyl-8-dimethylamino-3-[2-(trifluoromethyl)-pyrimidin-5-yl]-1,3-diazaspiro[4.5]decan-2-one]",3,–
"Cc1cc(C(F)(F)F)ncc1N1C[C@]2(CC[C@@](Cc3ccccc3)(N(C)C)CC2)NC1=O [SC_3174, trans-8-Benzyl-8-dimethylamino-3-[4-methyl-6-(trifluoromethyl)-pyridin-3-yl]-1,3-diazaspiro[4.5]decan-2-one]",3,–
"Cc1cc(C(F)(F)F)ncc1N1CC2(CCC(Cc3ccccc3)(N(C)C)CC2)NC1=O (stereo not drawn) [SC_3215, cis-8-Benzyl-8-dimethylamino-3-[4-methyl-6-(trifluoromethyl)-pyridin-3-yl]-1,3-diazaspiro[4.5]decan-2-one]",0,–
"CN(C)C1(c2nc3ccccc3n2C)CCC2(CC1)CN(c1cnc(C(F)(F)F)nc1)C(=O)N2 (stereo not drawn) [SC_3219, cis-8-Dimethylamino-8-(1-methyl-1H-benzoimidazol-2-yl)-3-[2-(trifluoromethyl)-pyrimidin-5-yl]-1,3-diazaspiro[4.5]decan-2-one]",0,–
"CN(CC1CCOC1)[C@]1(c2ccccc2)CC[C@]2(CC1)CN(c1cnc(N3CCOCC3)nc1)C(=O)N2 (stereo partly drawn) [SC_3304, cis-8-[Methyl-(tetrahydro-furan-3-yl-methyl)-amino]-3-(2-morpholin-4-yl-pyrimidin-5-yl)-8-phenyl-1,3-diazaspiro[4.5]decan-2-one]",9,–
"CN(CC1CCOC1)[C@]1(c2ccccc2)CC[C@]2(CC1)CN(c1cnc(N3CCOCC3)nc1)C(=O)N2 (stereo partly drawn) [SC_3305, cis-8-[Methyl-(tetrahydro-furan-3-yl-methyl)-amino]-3-(2-morpholin-4-yl-pyrimidin-5-yl)-8-phenyl-1,3-diazaspiro[4.5]decan-2-one]",10,–
